Data as given in patent US4103004A, “Cardiotonic agent” (University of Hawaii, priority 1977, dated 1978).

Tests used:
[1] = test system: isolated rat atria; assay: Bioassay for positive inotropic effect on isolated rat atria; format: cell-based
Procedure: Bioassay for Determining Positive Inotropic Effect
Bioassays of the solutions containing anthopleurin-C are performed on isolated atria of rat hearts. The atrium is separated from the rest of the heart and suspended in an isolated organ bath (20, 25, or 50 ml.) containing Krebs Ringer bicarbonate medium (pH 7.4) of the following composition in distilled deionized water (in mmoles): Na^+, 145; K^+, 6.02; Ca^+2, 1.22; Mg^+2, 1.33; Cl^-, 126; HCO3^-, 25.3; PO4^-3, 1.2; SO4^-2, 1.33; and glucose, 5.5. The temperature of the organ bath is maintained at 30° C., and the Krebs-Ringer medium is continuously aerated with 95% O2 --5% CO2.
The spontaneously beating atrial preparation is connected by a thin silk thread to a force-displacement transducer (Grass model FT.03), and the contractile movements are recorded on a six-channel polygraph Grass Model 7. The preparation is allowed to equilibrate under 750 mg. tension for 60 minutes prior to beginning an assay. After this equilibration, during which the preparations are washed out every 30 minutes, the spontaneous beat rate of the atria remains constant; the change during a 10-minute observation being less than 5 beats/min. The changes in contractile force and rate produced by the test solution containing anthopleurin-C is expressed as a percentage increase or decrease in tension and rhythm, with the period immediately preceding addition of test solution to the tissue bath as the baseline for comparison.

[2] = Solubility in deionized water; format: physicochemical
[3] = Stability at neutral and lower pH; format: physicochemical; conditions: neutral and lower pH values
[4] = Isoelectric focusing; format: physicochemical; conditions: doubly purified material
From the text: For the purpose of obtaining electrophoretic properties, the anthopleurin-Cobtained in Example 1, Steps a through d below, was rechromatographed on CM Sephadex C-25, and G-10 according to the process set forth in Example 1, Steps c, and d, respectively. The doubly purified material was subjected to electrophoretic analysis using commercially available pre-cast 12% acrylamide gels and matched buffer systems obtained from Bio·Rad Laboratories, 32nd and Griffin, Richmond, California.
Isoelectric focusing gave the isoelectric point at a pH = 8.0. Disc gel electrophoresis with 12% polyacrylamide gel at pH 3.6 gave an Rf value of 0.49 versus methyl green tracking dye. […] Sodium dodecyl sulfate (SDS) disc gel electrophoresis using a 10% gel indicated a m.w. of about 5,200 after incubation with dithioerythritol, using RNase A and pancreatic trypsin inhibitor (PTI) for comparison. The molecular weight is so low that these values are only approximate.

## anthopleurin-C
[1]; fold as potent as ouabain
  potency relative to ouabain in positive inotropic effect: 200-1000 x
[1]; isolated rat atria
  ED50, positive inotropic effect: 3 nM
  chronotropic effect: does not show any chronotropic effect
[2]
  solubility: very soluble
[3]
  stability: relatively stable
[4]
  isoelectric point: 8.0 pH
